Our source for the IC50 values is US9499495B2, “Quinazolines and azaquinazolines as dual inhibitors of RAS/RAF/MEK/ERK and PI3K/AKT/PTEN/mTOR pathways” (Asana Biosciences, LLC, priority 2013, dated 2016).

One assay concerns pERK in RKO cells. The assay is described as follows: In Cell Western (ICW) assay, pERK in RKO cells. It counts as cell-based. As to conditions: Homo sapiens, 3 h treatment. As to the method:
(§1) Cell lines A375, A2058 and RKO obtained from the ATCC as provided above, were grown, and after attaining ˜80% confluency were trypsinized, centrifuged and resuspended in fresh media. The cells were seeded at the specified density (20,000 to 50,000) in a 96-well format black-well clear bottom plate (Corning) and incubated overnight at 37° C. in a 5% CO2 incubator. The next day, compound dilutions of test compounds were prepared in 100% DMSO followed by dilutions in respective media. Treatment of test compounds was performed for 3 h at 37° C. in 5% CO2 incubator. Following 3 h drug treatment, the conditional media was discarded and the cells were washed once with cPBS (PBS containing 0.1% magnesium chloride hexahydrate and 0.1% anhydrous calcium chloride) and fixed with 4% paraformaldehyde in cPBS for 1 h at rt. After fixing, the cells were given three washes using cPBST (cPBS containing 0.1% Triton™ X-100 reagent) and then blocked using blocking solution (5% skimmed milk powder or 5% BSA prepared in cPBST) for 2 h at rt with shaking at 300 rpm. The cells were again washed thrice with cPBST and incubated with primary antibody phospho-p44/42 MAPK(Erk1/2)(Thr202/204) antibody (Cell Signaling, Catalog # 9101L), phospho S6 ribosomal protein (Cell Signaling, Catalog #4858L), phospho AKT (Thr 308) (Cell Signaling, Catalog #9275) or phospho AKT (Ser 473) (Cell Signaling, Catalog #4060L) in specified dilutions (1:500-1:2500), prepared in respective blocking solutions, in a racker overnight at 4° C. The next day, the cells were washed with 1× Delfia® wash buffer (4×1 wash) and incubated with secondary antibody (Delfia®-Eu-N1 labeled anti-rabbit antibody; PerkinElmer, Catalog #AD0105; dilutions: 1:2000 to 1:6000 in Delfia® assay buffer (PerkinElmer, Catalog #1244-111)) for 2 h at rt in the dark at 300 rpm. The cells were then given four washes with 1× Delfia® wash buffer and incubated with Wallac Delfia® Enhancement solution (100 μL; PerkinElmer, Catalog #1244-105) for 20 min at rt in the dark at 300 rpm. The fluorescence emission was then read at 615 nm with an excitation wavelength of 340 nm using a Victor V5 Fluorometer (Perkin Elmer, US). The cells were then washed once with 1×cPBS and incubated with 100 μL of 0.5 mg/mL of Hoechst 33258 dye prepared in cPBS and read at 460 nm with 355 nm excitation, thereby evaluating the correction factor.
(§2) The % inhibition for the test compounds of formula (I) (new chemical entities (NCEs)) was calculated keeping DMSO control as 0% and the IC50 values were determined using sigmoidal dose response curve fit in GraphPad Prism® v5 software.

A further assay deals with RKO cells. Description: XTT assay for cell viability, RKO cells. As to conditions: Homo sapiens, 72 h. It counts as cell-based. In short, it runs like this: (§3)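 GI50 derived by sigmoidal dose-response fitting of proliferation normalised to DMSO control (100%). Readout: A450 after 2-3 h with XTT (1 mg/ml)/PMS (25 μM), following 72 h compound treatment at 37° C., 5% CO2 of cells plated at 1000-2000 per well the previous day.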

The next assay concerns A375 cells. Description: XTT assay for cell viability, A375 cells. In kind it is cell-based. As to conditions: Homo sapiens, A-375, 72 h. In short, it runs like this: as §3
A further assay relates to pAKT (T308) in RKO cells. Description: In Cell Western (ICW) assay, pAKT-T308 in RKO cells. In kind it is cell-based. As to conditions: Homo sapiens, 3 h treatment. As for the experimental part:
as §1, §2

A further assay deals with pERK in A375 cells. The assay is described as follows: In Cell Western (ICW) assay, pERK in A375 cells. It counts as cell-based. To be noted: Homo sapiens, A-375, 3 h treatment. In outline: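 After a 3 h compound treatment at 37 °C, fixed RKO or A375 cells were probed for phospho-ERK1/2 (T202/Y204), phospho-S6RP or phospho-AKT T308 and detected with a Eu-tagged anti-rabbit antibody (ex 340/em 615 nm), with Hoechst signal as the cell-number correction. Inhibition was referenced to DMSO, and IC50 values came from sigmoidal dose-response curves.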

The next assay has as its target T1, B-RAFV600E (Homo sapiens, UniProt P15056, V600E).
T1 construct: purchased Millipore, USA 14-557
Description: B-RAFV600E radiometric assay. In kind it is biochemical. To be noted: read-out: Kinase assay B-Raf. In outline:
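B-RAFV600E was preincubated 45 min at rt with compound in 1% DMSO. MEK-K97M (0.5 μg), 5 μM final cold ATP and [γ-32P]ATP were then added for 2 h at rt. Phosphorylated MEK was captured on P81 paper and scintillation-counted; IC50 came from a sigmoidal dose-response fit.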

A further assay addresses T2, mTOR kinase (Homo sapiens, UniProt P42345).
T2 construct: purchased Millipore, US
The assay is described as follows: mTOR kinase TR-FRET assay. It counts as biochemical. In outline: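 TR-FRET with ULight-p70 S6K (Thr 389) peptide (50 nM) and 20 μM ATP in 50 mM HEPES pH 7.5, 1 mM EGTA, 3 mM MnCl2; compound pre-incubated with enzyme before substrate addition, reaction at rt, EDTA-stopped. Eu anti-phospho antibody read 665/615 nm; IC50 from sigmoidal dose-response fit.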
For orientation: Time-resolved FRET reads energy transfer from a long-lived donor to a nearby acceptor.

The target in another assay is T3, PI3Kα (Homo sapiens, UniProt P42336).
T3 construct: made in house; host or cells: SF9 cells
Description: PI3 Kinase alpha TR-FRET assay. In kind it is biochemical. In short, it runs like this:
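Purified Sf9-expressed p110/p85α (5 ng) was pre-incubated with compound and PIP2 at rt, then ATP was added (PIP2 and ATP both 40 μM) for a 30 min reaction. PIP3 was detected by TR-FRET displacement of biotin-PIP3, and IC50 was taken from dose-response curves of the 665/615 nm emission ratio.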

The subject of the next assay is pS6RP in RKO cells. Description: In Cell Western (ICW) assay, pS6RP in RKO cells. To be noted: Homo sapiens, 3 h treatment. In kind it is cell-based. As for the experimental part:
as §1, §2

T3 sequence (P42336 whole entry, species assumed): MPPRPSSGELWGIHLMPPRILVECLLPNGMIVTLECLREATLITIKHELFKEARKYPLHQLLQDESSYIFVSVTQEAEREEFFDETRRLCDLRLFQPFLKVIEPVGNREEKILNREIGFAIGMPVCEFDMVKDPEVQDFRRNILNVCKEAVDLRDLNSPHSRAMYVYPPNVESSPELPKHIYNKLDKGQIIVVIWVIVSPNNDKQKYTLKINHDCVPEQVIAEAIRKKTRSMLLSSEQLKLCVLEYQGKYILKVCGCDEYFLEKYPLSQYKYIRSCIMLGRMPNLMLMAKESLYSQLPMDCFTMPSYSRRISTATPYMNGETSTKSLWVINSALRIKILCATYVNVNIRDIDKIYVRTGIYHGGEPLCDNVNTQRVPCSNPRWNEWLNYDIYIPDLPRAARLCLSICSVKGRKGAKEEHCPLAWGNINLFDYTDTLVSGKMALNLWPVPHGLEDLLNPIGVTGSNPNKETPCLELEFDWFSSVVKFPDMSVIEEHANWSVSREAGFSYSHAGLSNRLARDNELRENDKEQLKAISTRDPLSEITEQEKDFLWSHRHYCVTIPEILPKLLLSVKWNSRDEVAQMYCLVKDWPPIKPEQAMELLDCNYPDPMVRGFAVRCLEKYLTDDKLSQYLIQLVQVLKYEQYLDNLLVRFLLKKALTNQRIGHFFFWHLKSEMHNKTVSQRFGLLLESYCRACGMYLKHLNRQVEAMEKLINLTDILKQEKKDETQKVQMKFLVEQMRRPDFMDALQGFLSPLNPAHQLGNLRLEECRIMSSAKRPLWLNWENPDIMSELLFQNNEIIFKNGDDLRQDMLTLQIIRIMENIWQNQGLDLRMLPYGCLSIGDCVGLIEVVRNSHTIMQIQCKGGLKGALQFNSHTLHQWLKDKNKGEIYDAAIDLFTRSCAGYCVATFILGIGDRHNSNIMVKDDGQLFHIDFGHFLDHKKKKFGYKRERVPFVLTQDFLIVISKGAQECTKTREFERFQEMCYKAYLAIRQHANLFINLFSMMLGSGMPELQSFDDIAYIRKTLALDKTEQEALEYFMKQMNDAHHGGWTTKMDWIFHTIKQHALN
T3 sequence (P27986 whole entry partner, species assumed): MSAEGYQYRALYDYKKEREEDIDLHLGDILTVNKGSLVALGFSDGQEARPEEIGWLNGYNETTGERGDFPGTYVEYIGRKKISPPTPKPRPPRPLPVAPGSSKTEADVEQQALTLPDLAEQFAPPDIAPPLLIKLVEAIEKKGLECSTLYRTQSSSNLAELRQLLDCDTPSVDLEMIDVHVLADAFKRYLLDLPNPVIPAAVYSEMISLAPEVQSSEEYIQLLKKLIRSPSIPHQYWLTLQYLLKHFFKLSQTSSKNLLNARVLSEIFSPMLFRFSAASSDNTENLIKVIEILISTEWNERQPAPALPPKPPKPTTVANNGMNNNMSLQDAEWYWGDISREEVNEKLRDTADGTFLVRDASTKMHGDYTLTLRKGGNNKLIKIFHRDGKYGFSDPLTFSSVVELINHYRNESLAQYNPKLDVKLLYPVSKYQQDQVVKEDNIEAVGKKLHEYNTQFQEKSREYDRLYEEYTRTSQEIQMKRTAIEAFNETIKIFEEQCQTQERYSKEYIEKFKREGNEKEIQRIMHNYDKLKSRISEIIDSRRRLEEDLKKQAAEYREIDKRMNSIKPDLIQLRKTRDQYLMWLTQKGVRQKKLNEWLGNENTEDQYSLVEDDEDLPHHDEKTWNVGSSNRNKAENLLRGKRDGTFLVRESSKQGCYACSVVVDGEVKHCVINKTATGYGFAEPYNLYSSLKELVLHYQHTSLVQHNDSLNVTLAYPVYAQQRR
T1 sequence (P15056 416-766 V600E limits assumed): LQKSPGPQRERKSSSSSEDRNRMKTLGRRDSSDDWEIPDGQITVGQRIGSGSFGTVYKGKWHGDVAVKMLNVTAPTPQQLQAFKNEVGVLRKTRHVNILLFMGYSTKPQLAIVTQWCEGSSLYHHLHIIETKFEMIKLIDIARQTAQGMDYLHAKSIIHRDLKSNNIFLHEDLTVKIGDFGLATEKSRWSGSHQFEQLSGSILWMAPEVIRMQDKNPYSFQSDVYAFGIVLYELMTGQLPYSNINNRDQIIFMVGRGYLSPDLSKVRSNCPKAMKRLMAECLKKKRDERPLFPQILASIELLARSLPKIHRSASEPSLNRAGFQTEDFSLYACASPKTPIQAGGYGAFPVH
T2 sequence (P42345 1362-2549 limits assumed): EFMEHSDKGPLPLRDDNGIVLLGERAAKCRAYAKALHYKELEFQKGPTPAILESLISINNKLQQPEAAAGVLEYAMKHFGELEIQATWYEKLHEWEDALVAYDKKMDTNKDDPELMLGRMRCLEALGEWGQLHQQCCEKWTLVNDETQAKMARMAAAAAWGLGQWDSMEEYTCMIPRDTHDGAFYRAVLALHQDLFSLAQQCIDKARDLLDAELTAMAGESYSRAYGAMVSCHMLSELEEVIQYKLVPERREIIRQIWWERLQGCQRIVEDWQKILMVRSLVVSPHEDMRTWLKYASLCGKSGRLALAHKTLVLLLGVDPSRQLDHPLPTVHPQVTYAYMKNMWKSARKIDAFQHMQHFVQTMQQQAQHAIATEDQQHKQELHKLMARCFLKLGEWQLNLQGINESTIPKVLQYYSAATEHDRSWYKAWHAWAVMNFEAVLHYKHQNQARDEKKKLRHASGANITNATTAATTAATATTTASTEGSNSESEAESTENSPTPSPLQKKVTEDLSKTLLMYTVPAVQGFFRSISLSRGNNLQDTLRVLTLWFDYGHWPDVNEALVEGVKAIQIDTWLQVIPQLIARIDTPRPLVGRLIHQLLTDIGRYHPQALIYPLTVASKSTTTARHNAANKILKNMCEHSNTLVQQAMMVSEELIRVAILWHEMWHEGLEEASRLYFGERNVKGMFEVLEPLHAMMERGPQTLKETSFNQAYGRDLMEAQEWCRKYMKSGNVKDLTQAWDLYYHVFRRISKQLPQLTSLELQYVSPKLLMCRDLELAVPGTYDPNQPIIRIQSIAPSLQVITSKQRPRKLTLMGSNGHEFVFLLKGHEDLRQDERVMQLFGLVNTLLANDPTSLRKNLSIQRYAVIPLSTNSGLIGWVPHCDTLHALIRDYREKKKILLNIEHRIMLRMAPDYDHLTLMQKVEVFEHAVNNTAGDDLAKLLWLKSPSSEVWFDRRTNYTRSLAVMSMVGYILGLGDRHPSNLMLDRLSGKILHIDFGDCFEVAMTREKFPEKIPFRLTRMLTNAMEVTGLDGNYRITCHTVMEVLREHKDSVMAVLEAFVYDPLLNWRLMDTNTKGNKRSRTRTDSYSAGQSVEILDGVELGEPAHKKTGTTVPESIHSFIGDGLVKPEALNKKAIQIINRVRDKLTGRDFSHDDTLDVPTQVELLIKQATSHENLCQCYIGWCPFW

For the compound `CNC(=O)Nc1ccc(-c2nc(N3CCOCC3)c3nc(-c4cccc(NS(=O)(=O)CCCF)c4F)ccc3n2)cc1` [Example 139, 3-fluoro-N-(2-fluoro-3-(2-(4-(3-methylureido)phenyl)-4-morpholinopyrido[3,2-d]pyrimidin-6-yl)phenyl)propane-1-sulfonamide], the IC50 lay within 100 to 1000 nM with pERK in RKO cells; 100 to 1000 nM in the assay with RKO cells; 100 to 1000 nM in the assay on A375 cells; 100 to 1000 nM in the assay on pAKT (T308) in RKO cells; 100 to 1000 nM in the assay on pERK in A375 cells; 1 to 100 nM on B-RAFV600E. The compound also returned an IC50 against mTOR kinase of 1 to 100 nM.

Take `Cc1nc(N)ncc1-c1nc(N2CCOCC2)c2nc(-c3cccc(NS(=O)(=O)CCCF)c3F)ccc2n1` [Example 109]: the IC50 in the assay with pERK in RKO cells fell in the range of 100 to 1000 nM; against PI3Kα, 1 to 100 nM; in the assay with A375 cells, 100 to 1000 nM; in the assay on pAKT (T308) in RKO cells, 1000 to 10000 nM; in the assay on pERK in A375 cells it was 1 to 100 nM; at B-RAFV600E, 1 to 100 nM.

`Nc1ncc(-c2nc(N3CCOCC3)c3nc(-c4cccc(NS(=O)(=O)CCCF)c4F)ccc3n2)cc1F` [Example 105, N-(3-(2-(6-amino-5-fluoropyridin-3-yl)-4-morpholinopyrido[3,2-d]pyrimidin-6-yl)-2-fluorophenyl)-3-fluoropropane-1-sulfonamide]: the IC50 in the assay with pERK in RKO cells lay within 100 to 1000 nM; with RKO cells, 1000 to 10000 nM; at PI3Kα, 1 to 100 nM; in the assay with A375 cells, 100 to 1000 nM; with pAKT (T308) in RKO cells, 1000 to 10000 nM; in the assay with pERK in A375 cells it was 100 to 1000 nM. Moreover, at B-RAFV600E, the IC50 fell in the range of 1 to 100 nM.

Turning to `Nc1ncc(-c2nc(N3CCOCC3)c3nc(-c4cccc(NS(=O)(=O)CCCF)c4F)ccc3n2)c(C(F)(F)F)n1` [Example 100, N-(3-(2-(2-amino-4-(trifluoromethyl)pyrimidin-5-yl)-4-morpholinopyrido[3,2-d]pyrimidin-6-yl)-2-fluorophenyl)-3-fluoropropane-1-sulfonamide], the IC50 in the assay on pERK in RKO cells fell in the range of 1 to 100 nM; in the assay with RKO cells, 100 to 1000 nM; at PI3Kα it was 1 to 100 nM; with A375 cells it was 100 to 1000 nM; with pAKT (T308) in RKO cells, 100 to 1000 nM; with pERK in A375 cells, 100 to 1000 nM. The IC50 at B-RAFV600E lay in the range of 1 to 100 nM.

For `Nc1ncc(-c2nc(N3CCOCC3)c3nc(-c4cccc(NS(=O)(=O)CCCF)c4F)ccc3n2)cc1Cl` [Example 103, N-(3-(2-(6-amino-5-chloropyridin-3-yl)-4-morpholinopyrido[3,2-d]pyrimidin-6-yl)-2-fluorophenyl)-3-fluoropropane-1-sulfonamide], the IC50 is 1000 to 10000 nM in the assay on RKO cells; 100 to 1000 nM against PI3Kα; 1000 to 10000 nM with pAKT (T308) in RKO cells; 100 to 1000 nM in the assay with pERK in A375 cells; 1 to 100 nM at B-RAFV600E.

Turning to `Nc1ccc(-c2nc(N3CCOCC3)c3cc(-c4cccc(NS(=O)(=O)CCCF)c4F)cc(N4CCOCC4)c3n2)cn1` [Example 5, N-(3-(2-(6-aminopyridin-3-yl)-4,8-dimorpholinoquinazolin-6-yl)-2-fluorophenyl)-3-fluoropropane-1-sulfonamide], the IC50 in the assay on pERK in RKO cells is 1 to 100 nM; in the assay with RKO cells, 100 to 1000 nM; with A375 cells, 1 to 100 nM; in the assay with pERK in A375 cells, 1 to 100 nM; on B-RAFV600E, 1 to 100 nM; in the assay with pS6RP in RKO cells, 1 to 100 nM. The same compound returned an IC50 against mTOR kinase of 1 to 100 nM.

As to `C[C@@H]1COCCN1c1nc(-c2cnc(N)nc2)nc2c(N3CCOCC3)cc(-c3cccc(NS(=O)(=O)CCCF)c3F)cc12` [Example 73, (R)-N-(3-(2-(2-aminopyrimidin-5-yl)-4-(3-methylmorpholino)-8-morpholinoqulnazolin-6-yl)-2-fluorophenyl)-3-fluoropropane-1-sulfonamide], the IC50 in the assay with pERK in RKO cells was in the range of 1 to 100 nM; with RKO cells it was 100 to 1000 nM; in the assay on A375 cells, 1 to 100 nM; in the assay on pERK in A375 cells it was 1 to 100 nM; on B-RAFV600E, 1 to 100 nM; in the assay with pS6RP in RKO cells, 100 to 1000 nM. Besides, the IC50 at mTOR kinase fell in the range of 1 to 100 nM.
